# US20120135965A1, “AMORPHOUS FOSAMPRENAVIR CALCIUM” (RANBAXY LABORATORIES LIMITED, priority 2009, published 2012)
# Read-outs that look alike come from different tables or passages of the source. Marks after values point to notes of the source that are not given here.
# Key:
# [1] = Hygroscopicity according to European Pharmacopoeia 6.0; type: physicochemical; settings: for Hygroscopicity, % increase in mass: 25 ± 1° C./80 ± 2% RH for 24 h, monocalcium salt
# [2] = Storage stability of the amorphous form followed by XRPD; type: physicochemical; settings: 40±1° C. at 75±2% RH, two months
# Description: The XRPD of the samples were determined by using Panalytical X'Pert Pro X-Ray Powder Diffractometer in the range 3 to 40 degree 2 theta with a step size of 0.02 and under tube voltage and current of 45 Kv and 40 mA respectively. Copper radiation of wavelength 1.54 angstrom and Xceletor detector were used.
# Fosamprenavir calcium (5 g) was dissolved in methanol (125 ml) at 25° to 30° C. The solution was filtered and fed to a spray dryer (BUCHI, B-290) at feed pump RPM of 1% to 3%. The following parameters were controlled in the spray drying process: • Nozzle Diameter: 0.7 mm • Carrier gas: Nitrogen at 2.0 to 3.0 kg/cm^2 • Air inlet temperature: 80° to 85° C. • Outlet temperature: 35° to 55° C. • Type of atomizer: Two fluid nozzle • The solvent was evaporated at 80° to 85° C. by spray drying. The solid so obtained was collected from the spray dryer and further dried at 55° to 60° C. under vacuum (10 to 15 mmHg) for 10 to 12 hours to obtain the title compound having an XRPD pattern as depicted in FIG. 2.
# [3] = Aqueous solubility test according to United States Pharmacopeia 32; type: physicochemical; settings: for Solubility (mg/ml of solvent) / Parts of solvent required per g of solute / solubility: aqueous; for Solubility (mg/ml of solvent) / solubility: by qualitative observation; for solubility: thermodynamic from solid, read-out: Solubility (mg/ml of solvent)
# [4] = Antimicrob. Agents Chemother., 2004, 48(3), 791-798; cited from earlier work
smiles,measurement,setting,value
"CC(C)CN(C[C@@H](OP(=O)([O-])[O-])[C@H](Cc1ccccc1)NC(=O)O[C@H]1CCOC1)S(=O)(=O)c1ccc(N)cc1.[Ca+2] [(3S)-tetrahydrofuran-3-yl (1S ,2R)-3-[[(4-aminophenyl)sulfonyl](isobutyl)amino]-1-benzyl-2-(phosphonooxy)propylcarbamate monocalcium salt, reference compound]","Hygroscopicity, % increase in mass",[1]; listed as Crystalline form I,11.62%
"CC(C)CN(C[C@@H](OP(=O)([O-])[O-])[C@H](Cc1ccccc1)NC(=O)O[C@H]1CCOC1)S(=O)(=O)c1ccc(N)cc1.[Ca+2] [Amorphous fosamprenavir calcium, (3S)-tetrahydrofuran-3-yl (1S ,2R)-3-[[(4-aminophenyl)sulfonyl](isobutyl)amino]-1-benzyl-2-(phosphonooxy)propylcarbamate monocalcium salt]",Change in XRPD pattern / conversion into crystalline form on storage,"[2]; listed as Example 2, monocalcium salt",no change in the XRPD pattern was observed
same,Change in XRPD pattern / conversion into crystalline form on storage,[2]; monocalcium salt,not converted into any crystalline form
same,Hygroscopicity in words,[1],essentially non-hygroscopic
same,"Hygroscopicity, % increase in mass",[1],17.5%
same,Solubility (mg/ml of solvent),"[3]; pH 1.47, monocalcium salt",1.25 mg/mL
same,Parts of solvent required per g of solute,"[3]; pH 1.47, monocalcium salt",800 parts
same,Solubility (mg/ml of solvent),"[3]; pH 3.27, monocalcium salt",10 mg/mL
same,Parts of solvent required per g of solute,"[3]; pH 3.27, monocalcium salt",100 parts
same,Parts of solvent required per g of solute,"[3]; pH 4.11, monocalcium salt",150 parts
same,Solubility (mg/ml of solvent),"[3]; pH 5.02, monocalcium salt",6.7 mg/mL
same,Parts of solvent required per g of solute,"[3]; pH 5.02, monocalcium salt",150 parts
same,solubility,"[3]; pH 4.11, aqueous buffer, pH 4.11",6.7 mg/mL
same,solubility,"[3]; pH 6.27, aqueous buffer, pH 6.27",0.1 mg/mL
same,Volume of aqueous solution required for dissolving about 1 g,[3]; pH of about 3 to about 5.5,not more than 200 ml
same,Solubility compared with crystalline form I of fosamprenavir calcium,[3]; relevant physiological pH range,superior
"CC(C)CN(C[C@@H](OP(=O)([O-])[O-])[C@H](Cc1ccccc1)NC(=O)O[C@H]1CCOC1)S(=O)(=O)c1ccc(N)cc1.[Ca+2] [Crystalline form I of fosamprenavir calcium] [(3S)-tetrahydrofuran-3-yl (1S ,2R)-3-[[(4-aminophenyl)sulfonyl](isobutyl)amino]-1-benzyl-2-(phosphonooxy)propylcarbamate monocalcium salt, reference compound]",Solubility (mg/ml of solvent),[3]; pH 1.47,0.5 mg/mL
same,Parts of solvent required per g of solute,"[3]; pH 1.47, monocalcium salt",2100 parts
same,Solubility (mg/ml of solvent),"[3]; pH 3.27, monocalcium salt",2.5 mg/mL
same,Parts of solvent required per g of solute,"[3]; pH 3.27, monocalcium salt",400 parts
same,Solubility (mg/ml of solvent),"[3]; pH 4.11, monocalcium salt",4.0 mg/mL
same,Parts of solvent required per g of solute,"[3]; pH 4.11, monocalcium salt",250 parts
same,Solubility (mg/ml of solvent),"[3]; pH 5.02, monocalcium salt",3.3 mg/mL
same,Parts of solvent required per g of solute,"[3]; pH 5.02, monocalcium salt",300 parts
same,Parts of solvent required per g of solute,"[3]; pH 6.27, monocalcium salt","> 10,000** parts"
"CC(C)CN(C[C@@H](OP(=O)([O-])[O-])[C@H](Cc1ccccc1)NC(=O)O[C@H]1CCOC1)S(=O)(=O)c1ccc(N)cc1.[Ca+2] [calcium salt, (3S)-tetrahydrofuran-3-yl (1S ,2R)-3-[[(4-aminophenyl)sulfonyl](isobutyl)amino]-1-benzyl-2-(phosphonooxy)propylcarbamate monocalcium salt]","Solubility over the relevant physiological pH range, compared among forms",[4],reduced solubility
